In the CheMixHub viscosity set:

Experiment: xn = mol fraction of the nth substance listed

Brc1ccccc1 + COC(C)=O
viscosity [mPa·s], 101 kPa
Settings | 298.15 K | 308.15 K
x2 = 0.0439 | 0.978 | 0.915
x2 = 0.1485 | 0.848 | 0.811
x2 = 0.2482 | 0.747 | 0.725
x2 = 0.3503 | 0.662 | 0.649
x2 = 0.4378 | 0.602 | 0.592
x2 = 0.4901 | 0.57 | 0.561
x2 = 0.5493 | 0.538 | 0.529
x2 = 0.6489 | 0.492 | 0.48
x2 = 0.7491 | 0.453 | 0.437
x2 = 0.8491 | 0.421 | 0.399
x2 = 0.9433 | 0.397 | 0.368

Brc1ccccc1 + COCCO
303.15 K, 101.33 kPa
Settings | viscosity [mPa·s]
x2 = 0.1188 | 0.997
x2 = 0.219 | 1.024
x2 = 0.3173 | 1.06
x2 = 0.4336 | 1.114
x2 = 0.4974 | 1.147
x2 = 0.5621 | 1.179
x2 = 0.7198 | 1.255
x2 = 0.8018 | 1.296
x2 = 0.9254 | 1.352

Nc1cccc(Cl)c1Cl + COCCO
313.15 K, 101 kPa
Settings | viscosity [mPa·s]
x1 = 0.08697 | 1.48
x1 = 0.1819 | 1.74
x1 = 0.2858 | 2.04
x1 = 0.4001 | 2.33
x1 = 0.5264 | 2.63
x1 = 0.6667 | 2.96
x1 = 0.8236 | 3.25

Brc1ccccc1 + COc1ccccc1
viscosity [mPa·s], 101 kPa
Settings | x2 = 0.0996 | x2 = 0.1949 | x2 = 0.2927 | x2 = 0.3925 | x2 = 0.4935 | x2 = 0.5913 | x2 = 0.6919 | x2 = 0.7952 | x2 = 0.8992
298.15 K | 1.084 | 1.079 | 1.072 | 1.059 | 1.052 | 1.042 | 1.032 | 1.024 | 1.013
303.15 K | 1.017 | 1.011 | 1.005 | 0.9905 | 0.9826 | 0.9704 | 0.9621 | 0.952 | 0.9439
308.15 K | 0.957 | 0.9479 | 0.9392 | 0.9236 | 0.9158 | 0.9055 | 0.8959 | 0.8857 | 0.8768
313.15 K | 0.8974 | 0.8903 | 0.8784 | 0.8659 | 0.8558 | 0.8442 | 0.8346 | 0.8247 | 0.8135

FB(F)F + COc1ccccc1
viscosity [mPa·s], 101 kPa
Settings | 293.15 K | 298.15 K | 303.15 K
x1 = 0.00791 | 1.08 | 1 | 0.93
x1 = 0.08794 | 1.18 | 1.08 | 0.99
x1 = 0.1573 | 1.27 | 1.16 | 1.06
x1 = 0.2443 | 1.62 | 1.46 | 1.35
x1 = 0.3211 | 2.23 | 2.02 | 1.81
x1 = 0.3634 | 2.66 | 2.39 | 2.13
x1 = 0.3926 | 3.04 | 2.69 | 2.4
x1 = 0.419 | 3.46 | 3.04 | 2.67
x1 = 0.4457 | 3.95 | 3.45 | 3.04
x1 = 0.4544 | 4.19 | 3.62 | 3.15
x1 = 0.4895 | 4.98 | 4.31 | 3.73

COc1ccccc1O + CS(C)=O
viscosity [mPa·s], 101 kPa
Settings | x2 = 0.2 | x2 = 0.3 | x2 = 0.4 | x2 = 0.5 | x2 = 0.6 | x2 = 0.7 | x2 = 0.8 | x2 = 0.9
298.15 K | 10.62 | 12.4 | 11.9 | 9.46 | 6.91 | 4.97 | 3.59 | 2.66
308.15 K | 6.47 | 7.54 | 7.38 | 6.23 | 4.81 | 3.67 | 2.83 | 2.12
318.15 K | 4.35 | 5.01 | 4.98 | 4.4 | 3.59 | 2.8 | 2.2 | 1.75

O=C[C@H](O)[C@@H](O)[C@H](O)CO + C[N+](C)(C)CCO.[Cl-]
viscosity [mPa·s]
Settings | x2 = 0.5 | x2 = 0.6 | x2 = 0.667
303 K, 101 kPa | 34000 | – | –
313 K, 101 kPa | 11900 | – | –
313.2 K, 100 kPa | 855.5 | 1450 | 3450
318.2 K, 100 kPa | 565.8 | 886.5 | 1886
323 K, 101 kPa | 4740 | – | –

CC(C)[N+](=O)[O-] + Cc1cc(C)cc(C)c1
293.15 K, 101.33 kPa
Settings | viscosity [mPa·s]
x1 = 0.0955 | 0.691
x1 = 0.1983 | 0.691
x1 = 0.2294 | 0.69
x1 = 0.4005 | 0.691
x1 = 0.5048 | 0.696
x1 = 0.6007 | 0.701
x1 = 0.7022 | 0.708
x1 = 0.8014 | 0.717
x1 = 0.898 | 0.738
